Reference: US6242494A, “Substituted β-amino acid inhibitors of methionine aminopeptidase-2” (Abbott Laboratories, priority 1999, dated 2001)
Structures can show the parent of a compound that is named as a salt.

target: T1, methionine aminopeptidase-2 (MetAP2) (Homo sapiens, UniProt P50579); experiment: Inhibition of MetAP2 enzyme activity (96-well, Met-Ala-Ser substrate, L-amino acid oxidase/peroxidase/ortho-dianisidine, 450 nm); format: biochemical; conditions: IC50, recombinant MetAP2 4 μg/mL, pH 7.4, Met-Ala-Ser substrate, 20 minutes
T1 construct: made in house; host or cells: insect cells, baculovirus system (secreted, purified from culture supernatant)
T1 sequence (P50579 whole entry): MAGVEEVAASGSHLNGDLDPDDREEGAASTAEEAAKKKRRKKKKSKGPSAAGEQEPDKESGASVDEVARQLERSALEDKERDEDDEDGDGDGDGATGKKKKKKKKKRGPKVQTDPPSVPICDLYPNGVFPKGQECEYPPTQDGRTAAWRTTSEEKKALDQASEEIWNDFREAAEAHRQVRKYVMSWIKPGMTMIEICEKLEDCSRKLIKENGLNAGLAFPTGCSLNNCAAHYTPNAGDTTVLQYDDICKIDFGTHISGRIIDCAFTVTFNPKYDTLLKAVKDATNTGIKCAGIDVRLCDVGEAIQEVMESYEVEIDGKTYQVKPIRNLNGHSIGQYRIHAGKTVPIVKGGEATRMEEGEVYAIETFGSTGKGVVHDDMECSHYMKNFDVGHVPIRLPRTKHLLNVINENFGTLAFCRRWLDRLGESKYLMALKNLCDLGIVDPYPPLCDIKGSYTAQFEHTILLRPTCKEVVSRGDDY
Procedure: The ability of compounds of the present invention to inhibit methionine aminopeptidase 2 was evaluated using the following assay.
Assays for MetAP2 enzyme activity and MetAP2 inhibition were performed in 96-well microtiter plates. Compounds to be tested for MetAP2 inhibition were dissolved in dimethyl-sulfoxide at 10 mM and diluted ten-fold in assay buffer ([…], pH 7.4, 100 mM NaCl). Ten microliters of solution of each compound to be tested for inhibition were introduced into each cell of the plate, with each compound being tested in triplicate.
The absorbence at 450 nanometers was measured every 20 seconds over a period of twenty minutes using an automaic plate reader (Molecular Devices, CA, USA). The Vmax in mOD/min, calculated for each well was used to represent MetAP2 activity. The IC50 for each inhibitor was obtained by plotting the remaining MetAP2 activity versus inhibitor concentration.

`Cc1cccc(CNC(=O)C(O)[C@H](N)CC2CCCCC2)c1` (mixture of isomers) [Example 191, (2RS,3R)-3-amino-4-cyclohexyl-2hydroxy-N-(3-methylbenzyl)butanamide hydrochloride] and `N[C@H](CC1CCCCC1)C(O)C(=O)NCc1cccc(OC(F)(F)F)c1` (mixture of isomers) [Example 236, (2RS,3R)-3-amino-4-cyclohexyl-2-hydroxy-N-(3-(trifluoromethoxy)benzyl)butanamide Hydrochloride] are within 1.5-fold of each other in IC50: 2.5 µM for the first, 1.9 µM for the second.

Compared with `Cc1ncc([N+](=O)[O-])n1CCNC(=O)C(O)[C@H](N)CC1CCCCC1` (stereo partly drawn) [Example 56, (2RS,3R) N-(2-methyl-5-nitroimidazole-ethyl) 3-amino-2-hydroxy-4-cyclohexyl)butanamide dihydrochloride], `N[C@H](CC1CCCCC1)C(O)C(=O)NCCc1ccc(F)cc1` (mixture of isomers) [Example 142, (2RS,3R)-3-amino-4-cyclohexyl-N-(4-fluorophenethyl)-2-hydroxybutanamide hydrochloride] is 30-fold lower in IC50: 12 µM for the first, 0.4 µM for the second. The second is the more potent here.

Going from `N[C@H](CC1CCCCC1)C(O)C(=O)N[C@@H](CO)C(=O)OCc1cccc(OC(F)(F)F)c1` (stereo partly drawn) [Example 141, 3-(trifluoromethoxy)benzyl (2RS,3R,2'S)-2-((3-amino-4-cyclohexyl-2-hydroxybutanoyl)amino)-3-hydropropanoate trifluoroacetate] to `N[C@H](CC1CCCCC1)C(O)C(=O)N[C@@H](CO)C(=O)OCc1cccc([N+](=O)[O-])c1` (stereo partly drawn) [Example 139, 3-nitrobenzyl (2RS,3R,2'S)-2-((3-amino-4-cyclohexyl-2-hydroxybutanoyl)amino)-3-hydroxypropanoate trifluoroacetate], the IC50 falls from 3.7 µM to 1.7 µM (2.2-fold). The second is the more potent here.

Going from `Cc1cccc(C)c1NC(=O)C(O)[C@H](N)CC1CCCCC1` (mixture of isomers) [Example 172, (2RS,3R)-3-amino-4-cyclohexyl-N-(2,6-dimethylphenyl)-2-hydroxybutanamide hydrochloride] to `N[C@H](CC1CCCCC1)C(O)C(=O)Nc1cccc(Cl)c1` (mixture of isomers) [Example 148, (2RS,3R)-3-amino-N-(3-chlorophenyl)-4-cyclohexyl-2-hydroxybutanamide], the IC50 falls from 5 µM to 0.52 µM (9.6-fold). The second is the more potent here.

First: CCSCC[C@@H](N)C(O)C(=O)NCCC(=O)OCc1ccccc1 (stereo partly drawn) [Example 15, (2RS,3R)-N-(3-(carbobenzyloxy)ethyl)-3-amino-2-hydroxy-5-(ethylthio)pentanamide hydrochloride]
Second: CCSCC[C@@H](N)C(O)C(=O)NCCCCc1ccccc1 (stereo partly drawn) [Example 13, (2RS,3R)-N-(4-phenyl)butyl)-3-amino-2-hydroxy-5-(ethylthio)pentanamide hydrochloride]
The IC50 of the first is 1.5-fold lower: 0.72 µM for the first, 1.1 µM for the second. The first is the more potent here.

Going from `CSCC[C@@H](N)C(O)C(=O)NCCCCc1ccccc1` (mixture of isomers) [Example 7, (2RS,3R)-N-(4-phenylbutyl)-3-amino-2-hydroxy-5-(methylthio)pentanamide hydrochloride] to `CSCC[C@@H](N)C(O)C(=O)NCCCc1ccccc1` (stereo partly drawn) [Example 6, (2RS,3R)-N-((3-phenylpropyl)-3-amino-2-hydroxy-5-(methylthio)pentanamide hydrochloride], the IC50 rises from 2 µM to 3 µM (1.5-fold).

`CN(C)c1cccc2c(S(=O)(=O)NCCCCCNC(=O)C(O)[C@H](N)CC3CCCCC3)cccc12` (stereo partly drawn) [Example 55, (2RS,3R) N-(monodansylcadaverenyl-3-amino-2-hydroxy-4-cyclohexyl)butanamidedihydrochloride] and `N[C@H](CC1CCCCC1)C(O)C(=O)NCCc1ccc(S(N)(=O)=O)cc1` (stereo partly drawn) [Example 88, (2RS,3R)-3-amino-2-hydroxy-4-cyclohexyl)butanoyl-L-alanine-4-sulfonamide benzyl ester hydrochloride] are within 1.5-fold of each other in IC50: 2.7 µM for the first, 2.2 µM for the second.

First: N[C@H](CC1CCCCC1)C(O)C(=O)NCc1ccc(Cl)cc1 (mixture of isomers) [Example 193, (2RS,3R)-3-amino-N-(4-chlorobenzyl)-4-cyclohexyl-2-hydroxybutanamide hydrochloride]
Second: N[C@H](CC1CCCCC1)C(O)C(=O)NCCc1ccccc1Cl (mixture of isomers) [Example 108, (2RS,3R)-3-Amino-N-(2-chlorophenethyl)-4-cyclohexyl-2-hydroxybutanamide Hydrochloride]
The IC50 of the first is 4-fold higher: 2.5 µM for the first, 0.63 µM for the second.

`CCOC(=O)c1csc([C@H](C)NC(=O)C(O)[C@H](N)CC2CCCCC2)n1` (stereo partly drawn) [Example 54, (2RS,3R,1'-S)-N-(4-ethoxycarbonyl-2-(1'-aminoethyl)thizole)-3-amino-2-hydroxy-4-cyclohexyl)butanamide hydrochloride] and `C[C@H](COC(=O)c1ccccc1)NC(=O)C(O)[C@H](N)CC1CCCCC1` (some centres unmarked) [Example 50, hydrochloride] are within 1.5-fold of each other in IC50: 2.6 µM for the first, 3.7 µM for the second.

`CC(C)COCCCNC(=O)C(O)[C@H](N)CC1CCCCC1` (mixture of isomers) [Example 214, (2RS,3R)-3-amino-4-cyclohexyl-2-hydroxy-N-(3-isobutoxypropyl)butanamide Hydrochloride] and `N[C@H](CC1CCCCC1)C(O)C(=O)NCC1CCCCC1` (mixture of isomers) [Example 205, (2RS,3R)-3-amino-4-cyclohexyl-N-(cyclohexylmethyl)-2-hydroxybutanamide Hydrochloride] are within 1.5-fold of each other in IC50: 2.8 µM for the first, 2.5 µM for the second.

First: CCOC(=O)CCNC(=O)C(O)[C@H](N)Cc1ccccc1 (mixture of isomers) [Example 20, (2RS,3R)-N-(2-(carboethoxy)ethyl)-3-amino-2-hydroxy-4-phenyl-butanamide hydrochloride]
Second: CCOC(=O)CCCNC(=O)C(O)[C@H](N)Cc1ccccc1 (mixture of isomers) [Example 21, (2RS,3R)-N-(3-(carboethoxy)propyl)-3-amino-2-hydroxy-4-phenyl-butanamide hydrochloride]
The IC50 of the first is 2.4-fold lower: 5.8 µM for the first, 14 µM for the second. The first is the more potent here.

`COc1cc2c(cc1NC(=O)C(O)[C@H](N)CC1CCCCC1)oc1ccccc12` (mixture of isomers) [Example 179, (2RS,3R)-3-amino-4-cyclohexyl-2-hydroxy-N-(2-methoxydibenzo(b,d)furan-3-yl)butanamide hydrochloride] and `COc1ccc(-c2ccccc2)cc1NC(=O)C(O)[C@H](N)CC1CCCCC1` (mixture of isomers) [Example 221, (2RS,3R)-3-amino-4-cyclohexyl-2-hydroxy-N-(4-methoxy(1,1'-biphenyl)-3-yl)butanamide Hydrochloride] are within 1.5-fold of each other in IC50: 4.9 µM for the first, 5.4 µM for the second.

Going from `C[C@H](NC(=O)C(O)[C@H](N)CC1CCCCC1)C(=O)OCc1ccc(C(C)(C)C)cc1` (stereo partly drawn) [Example 93, (2RS,3R)-3-Amino-2-hydroxy-4-cyclohexyl)butanoyl-L-alanine 4-tert-butylbenzyl Ester Hydrochloride] to `CC(CCc1ccccc1)NC(=O)C(O)[C@H](N)CC1CCCCC1` (mixture of isomers) [Example 209, (2RS,3R)-3-amino-4-cyclohexyl-2-hydroxy-N-(1-methyl-3-phenylpropyl)butanamide Hydrochloride], the IC50 rises from 5.4 µM to 14 µM (2.6-fold).

`N[C@H](CC1CCCCC1)C(O)C(=O)NC1CCc2ccccc21` (mixture of isomers) [Example 228, (2RS,3R)-3-amino-4-cyclohexyl-N-(2,3-dihydro-1H-inden-1-yl)-2-hydroxybutanamide Hydrochloride] and `N[C@H](CC1CCCCC1)C(O)C(=O)N[C@H]1C[C@@H]1c1ccccc1` (mixture of isomers) [Example 229, (2RS,3R)-3-amino-4-cyclohexyl-2-hydroxy-N-((1S,2R)-2-phenylcyclopropyl)butanamide Hydrochloride] are within 1.5-fold of each other in IC50: 0.93 µM for the first, 1.2 µM for the second.

Going from `N[C@H](CC1CCCCC1)C(O)C(=O)Nc1ccc(Oc2ccccc2)cc1` (mixture of isomers) [Example 185, (2RS,3R)-3-amino-4-cyclohexyl-2-hydroxy-N-(4-phenoxyphenyl)butanamide hydrochloride] to `CC(NC(=O)C(O)[C@H](N)CC1CCCCC1)c1cccc2ccccc12` (stereo partly drawn) [Example 101, (2RS,3R,1'RS)-3-Amino-4-cyclohexyl-2-hydroxy-N-(1-(1-naphthyl)ethyl)butanamide Hydrochloride], the IC50 falls from 1.8 µM to 0.31 µM (5.8-fold).

Compared with `CCOC(=O)CCNC(=O)C(O)[C@H](N)CCSCC` (stereo partly drawn) [Example 14, (2RS,3R)-N-(3-(carboethoxy)ethyl)-3-amino-2-hydroxy-5-(ethylthio)pentanamide hydrochloride], `CCNC(=O)[C@H](C)NC(=O)C(O)[C@@H](N)CCSC` (stereo partly drawn) [Example 2, (2RS,3S,1'S)-N-((1-Ethylcarboxamido)ethyl)-3-amino-2-hydroxy-5-(methylthio)pentanamide hydrochloride] is 65-fold higher in IC50: 0.72 µM for the first, 47 µM for the second.

First: COc1cc(OC)c(NC(=O)C(O)[C@H](N)CC2CCCCC2)cc1Cl (mixture of isomers) [Example 180, (2RS,3R)-3-amino-N-(5-chloro-2,4-dimethoxyphenyl)-4-cyclohexyl-2-hydroxybutanamide hydrochloride]
Second: COc1ccc(NC(C)=O)cc1NC(=O)C(O)[C@H](N)CC1CCCCC1 (mixture of isomers) [Example 178, (2RS,3R)-N-(5-(acetylamino)-2-methoxyphenyl)-3-amino-4-cyclohexyl-2-hydroxybutanamide hydrochloride]
The IC50 of the first is 5.5-fold lower: 2 µM for the first, 11 µM for the second. The first is the more potent here.

For `N[C@H](CC1CCCCC1)C(O)C(=O)NCCc1ccc(OCc2ccccc2)c(OCc2ccccc2)c1` (mixture of isomers) [Example 167, (2RS,3R)-3-amino-N-(3,4-bis(benzyloxy)phenethyl)-4-cyclohexyl-2-hydroxybutanamide hydrochloride], the IC50 was 3.3 µM.
